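Where inhibition never reached the appropriate level, the endpoint shown equals the highest concentration tested. Otherwise, values were interpolated linearly from a five-concentration, 48-hour dose response in 96-well plates. TGI is the concentration that stops growth completely.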
What was measured:
Test in all cases: NCI tumour cell line growth inhibition, 48 h
[1] = test system: LXFL 529 NSCLC
[2] = test system: KM12 colon
[3] = test system: EKVX NSCLC
[4] = test system: M14 melanoma
[5] = test system: BT-549 breast
[6] = test system: MDA-MB-231 breast
[7] = test system: HCC-2998 colon
[8] = test system: 786-0 renal
[9] = test system: HOP-92 NSCLC
[10] = test system: NCI/ADR-RES ovarian
[11] = test system: P388/ADR leukemia
[12] = test system: DMS 114 small cell lung
[13] = test system: CAKI-1 renal
[14] = test system: HL-60(TB) leukemia
[15] = test system: HOP-18 NSCLC
[16] = test system: RXF 393 renal
[17] = test system: SF-539 CNS
[18] = test system: IGROV1 ovarian
[19] = test system: NCI-H23 lung
[20] = test system: MALME-3M melanoma
[21] = test system: HS 578T breast
[22] = test system: SNB-78 CNS
[23] = test system: SK-OV-3 ovarian
[24] = test system: CCRF-CEM leukemia
[25] = test system: UO-31 renal
[26] = test system: SK-MEL-2 melanoma
[27] = test system: OVCAR-5 ovarian
[28] = test system: OVCAR-4 ovarian
[29] = test system: KM20L2 colon
[30] = test system: NCI-H522 lung
[31] = test system: M19-MEL melanoma
[32] = test system: RPMI-8226 leukemia
[33] = test system: P388 leukemia
[34] = test system: U251 CNS
[35] = test system: MOLT-4 leukemia
[36] = test system: SNB-75 CNS
[37] = test system: OVCAR-3 ovarian
[38] = test system: MDA-N
[39] = test system: A498 renal
[40] = test system: TK-10 renal
[41] = test system: LOX IMVI melanoma
[42] = test system: ACHN renal
[43] = test system: K-562 leukemia
[44] = test system: DLD-1 colon
[45] = test system: NCI-H460 lung
[46] = test system: SNB-19 CNS
[47] = test system: UACC-257 melanoma
[48] = test system: HT29 colon
[49] = test system: T-47D breast
[50] = test system: COLO 205 colon
[51] = test system: HOP-62 NSCLC
[52] = test system: DMS 273 small cell lung
[53] = test system: SW-620 colon
[54] = test system: DU-145 prostate
[55] = test system: UACC-62 melanoma
[56] = test system: HCT-116 colon
[57] = test system: XF 498 CNS
[58] = test system: OVCAR-8 ovarian
[59] = test system: SK-MEL-5 melanoma
[60] = test system: SN12K1 renal
[61] = test system: NCI-H226 lung
[62] = test system: MDA-MB-435
[63] = test system: HCT-15 colon
[64] = test system: A549 NSCLC
[65] = test system: PC-3 prostate
[66] = test system: SK-MEL-28 melanoma
[67] = test system: SF-295 CNS
[68] = test system: MCF7 breast
[69] = test system: SF-268 CNS
[70] = test system: SR leukemia
[71] = test system: SN12C renal
[72] = test system: RXF-631 renal

**Q.** Which results are given for COc1cc(/C=C/C(=O)Oc2ccc(NC(C)=O)cc2)ccc1C(=O)OCc1ccccc1?
**A.** TGI [1]: > 100 µM; TGI [2]: > 100 µM; TGI [3]: > 100 µM; TGI [4]: > 100 µM; TGI [5]: > 100 µM; TGI [6]: > 100 µM; TGI [7]: > 100 µM; TGI [8]: > 100 µM; TGI [9]: > 100 µM; TGI [10]: > 100 µM; TGI [11]: > 100 µM; TGI [12]: > 100 µM; TGI [13]: > 100 µM; TGI [14]: > 100 µM; TGI [15]: > 100 µM; TGI [16]: 58.3 µM; TGI [17]: 60.8 µM; TGI [18]: > 93.2 µM; TGI [19]: > 100 µM; TGI [20]: > 100 µM; TGI [21]: > 100 µM; TGI [22]: > 89.4 µM; TGI [23]: > 92 µM; TGI [24]: > 100 µM; TGI [25]: > 100 µM; TGI [26]: 99.8 µM; TGI [27]: > 100 µM; TGI [28]: > 100 µM; TGI [29]: > 100 µM; TGI [30]: > 100 µM; TGI [31]: > 100 µM; TGI [32]: > 100 µM; TGI [33]: > 100 µM; TGI [34]: > 78.7 µM; TGI [35]: > 100 µM; TGI [36]: 47.6 µM; TGI [37]: > 100 µM; TGI [38]: > 100 µM; TGI [39]: > 100 µM; TGI [40]: > 100 µM; TGI [41]: > 100 µM; TGI [42]: > 100 µM; TGI [43]: > 100 µM; TGI [44]: > 100 µM; TGI [45]: > 100 µM; TGI [46]: > 91.2 µM; TGI [47]: > 100 µM; TGI [48]: > 100 µM; TGI [49]: > 100 µM; TGI [50]: > 100 µM; TGI [51]: > 91.3 µM; TGI [52]: > 100 µM; TGI [53]: > 100 µM; TGI [54]: > 100 µM; TGI [55]: > 97.1 µM; TGI [56]: > 100 µM; TGI [57]: > 70.2 µM; TGI [58]: > 100 µM; TGI [59]: > 100 µM; TGI [60]: > 100 µM; TGI [61]: > 100 µM; TGI [62]: > 100 µM; TGI [63]: > 100 µM; TGI [64]: > 100 µM; TGI [65]: > 100 µM; TGI [66]: > 100 µM; TGI [67]: > 89.3 µM; TGI [68]: > 100 µM; TGI [69]: > 100 µM; TGI [70]: > 100 µM; TGI [71]: > 100 µM

**Q.** Which results are given for CCOC(=O)/C(=C\c1ccccc1)C(=O)CCN1CCOCC1?
**A.** TGI [1]: 3.52 µM; TGI [2]: 23.1 µM; TGI [3]: 34.7 µM; TGI [4]: 18 µM; TGI [5]: 33.6 µM; TGI [6]: 27.1 µM; TGI [7]: 32.6 µM; TGI [8]: 21.9 µM; TGI [9]: 17.2 µM; TGI [10]: 32.5 µM; TGI [11]: > 21.7 µM; TGI [12]: 14.6 µM; TGI [13]: 9.51 µM; TGI [14]: 3.38 µM; TGI [15]: 28.6 µM; TGI [16]: 6.09 µM; TGI [17]: 16 µM; TGI [18]: 29.9 µM; TGI [19]: 24.9 µM; TGI [20]: 7.85 µM; TGI [21]: > 100 µM; TGI [22]: 36.5 µM; TGI [23]: 50.5 µM; TGI [24]: 3.95 µM; TGI [25]: 31.2 µM; TGI [26]: 42.4 µM; TGI [27]: 31.8 µM; TGI [28]: 33.6 µM; TGI [29]: 30.9 µM; TGI [30]: 3.43 µM; TGI [31]: 11.8 µM; TGI [32]: 6.07 µM; TGI [33]: 3.66 µM; TGI [34]: 21.6 µM; TGI [35]: 5.3 µM; TGI [36]: 38.3 µM; TGI [37]: 18.6 µM; TGI [38]: 18.7 µM; TGI [39]: 31.1 µM; TGI [40]: 19.9 µM; TGI [41]: 8.54 µM; TGI [42]: 13.4 µM; TGI [43]: 4.87 µM; TGI [44]: 6.96 µM; TGI [45]: 30 µM; TGI [46]: 51.5 µM; TGI [47]: 11 µM; TGI [48]: 25.1 µM; TGI [49]: 40.5 µM; TGI [50]: 8.93 µM; TGI [51]: 40.8 µM; TGI [52]: 27.3 µM; TGI [53]: 5.19 µM; TGI [54]: 39.2 µM; TGI [55]: 12.5 µM; TGI [56]: 34.9 µM; TGI [58]: 18.4 µM; TGI [59]: 25.3 µM; TGI [72]: 28.8 µM; TGI [60]: 19.4 µM; TGI [61]: 45.9 µM; TGI [62]: 40.1 µM; TGI [63]: 9.63 µM; TGI [64]: 53.1 µM; TGI [65]: 24.7 µM; TGI [66]: 10.1 µM; TGI [67]: 38.3 µM; TGI [68]: 23.8 µM; TGI [69]: 27.8 µM; TGI [70]: 9.11 µM; TGI [71]: 19.7 µM

From PubChem BioAssay (NCI)
